Data: US20240368145A1, “METHODS FOR TREATING CANCER” (IMMUNIC AG, priority 2021, published 2024)

Legend:
Assay type in all cases: cell-based
[1] = test system: prostate cancer cell line 22RV1; assay: Oncolead sulforhodamin B growth inhibition, 22RV1; conditions: Homo sapiens, sulforhodamin B assay, 72 and 120 h treatment, read-out: GI50 range 22RV1
Description: (§1) Cell growth was assessed by measuring protein content using sulforhodamin B. Growth inhibition was calculated by (TCMD−T0)/TNCT72h−T0)*100% with TCMD is the tumor growth at 72 h with the respective compound concentration. To is the protein content of the cell line before treatment and TNCT72h is the tumor growth of the DMSO control.

[2] = test system: prostate cancer cell line PC3; assay: Oncolead sulforhodamin B growth inhibition, PC3; conditions: sulforhodamin B assay; 72 and 120 h treatment; read-out: GI50 range PC3
Description: as §1

[3] = test system: prostate cancer cell line DU145; assay: Oncolead sulforhodamin B growth inhibition, DU145; conditions: Homo sapiens, DU-145; sulforhodamin B assay; 72 and 120 h treatment; read-out: GI50 range DU145
Description: as §1

[4] = test system: prostate cancer cell line VCaP; assay: Oncolead sulforhodamin B growth inhibition, VCaP; conditions: Homo sapiens, VCaP; sulforhodamin B assay; 72 and 120 h treatment; read-out: GI50 range VCAP
Description: as §1

[5] = test system: prostate cancer cell line LNCAP; assay: Oncolead sulforhodamin B growth inhibition, LNCAP; conditions: Homo sapiens, sulforhodamin B assay, 72 and 120 h treatment, read-out: GI50 range LNCAP
Description: as §1

RORγt = target: T1, RORγt (Homo sapiens, UniProt P51449); assay: RORγt inhibition, Indigo Biosciences Human RAR-related Orphan Receptor, Gamma Reporter Assay System; conditions: luciferase reporter cells, 22-24 h incubation; read-out: IC50 range, RORγt assay
T1 sequence (P51449 269-518 limits assumed): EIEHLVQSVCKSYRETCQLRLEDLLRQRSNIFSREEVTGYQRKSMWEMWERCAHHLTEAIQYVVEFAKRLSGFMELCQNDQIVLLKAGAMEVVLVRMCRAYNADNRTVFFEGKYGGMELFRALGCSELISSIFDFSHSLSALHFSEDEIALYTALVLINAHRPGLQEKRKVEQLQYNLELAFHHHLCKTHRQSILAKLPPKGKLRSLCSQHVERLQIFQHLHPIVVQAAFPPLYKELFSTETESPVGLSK
Description: The in vitro inhibition of RORγt was measured using Indigo Biosciences Human RAR-related Orphan Receptor, Gamma Reporter Assay System (Product #11304001-32) as described in the technical manual. In brief, 200 μL of Reporter Cells is dispensed into wells of the assay plate and preincubated for 4-6 h. Following the pre-incubation period, culture media are discarded and 200 μL/well of the prepared 1×-concentration treatment media are added. Following 22-24 h incubation, treatment media are discarded and Luciferase Detection Reagent is added. The intensity of light emission (in units of ‘Relative Light Units’; RLU) from each assay well is quantified using a plate-reading luminometer. Average values of RLU were determined for each treatment concentration. Non-linear regression analyses were performed and IC50 values determined using GraphPad Prism software. Provided inverse-agonists ursolic acid served as positive control.

IL-17A = assay: Cytokine assay, human PBMC stimulated with PHA: IL-17A; conditions: PHA-activated, 48 hours, read-out: IL-17A inhibition (IC50 range)
Description: (§2) Peripheral blood mononuclear cells (PBMC) from healthy human donors were purified using Accuspin™ System-Histopaque-1077 (Sigma) according to the protocol recommended by the manufacturer. Purified PBMC were then washed twice with phosphate-buffered saline (PBS) and resuspended in RPMI1640 culture medium supplemented with 10% dialyzed heat inactivated fetal calf serum, 1.5 mM L-glutamine, 100 U penicillin/mL and […] streptomycin/mL (all from PAN Biotech, Aidenbach, Germany). For stimulation, PBMC were seeded at 1×10^5 cells/well, activated with 2 gg/mL phytohaemagglutinin (PHA, Sigma) and incubated with the test compounds for 48 hours. IL-17A, IL-17F and INFγ were then determined in the culture supernatant using a Luminex BioPlex system, following the manufacturer's instructions (BioRad, Munich, Germany). To determine the IC50, compounds were titrated semilogarithmically.
(§3) Cytokines were determined in the aforementioned culture supernatant using the following methods: IL-17A was measured using the human homodimer IL-17A ELISA Ready Set Go Kit from cBioscience (Frankfurt, Germany); IL-17F using the human IL-17F ELI-Pair from Holzel Diagnostica GmbH (K51n, Germany); and IFNγ using the OptEIA human IFN-g ELISA from BD Bioscience (Heidelberg, Germany), all following the manufacturer's instructions.

IL-17F = assay: Cytokine assay, human PBMC stimulated with PHA: IL-17F; conditions: PHA-activated, 48 hours, read-out: IL-17F inhibition (IC50 range)
Description: as §2, §3

IFNγ = assay: Cytokine assay, human PBMC stimulated with PHA: IFNγ; conditions: PHA-activated, 48 hours, read-out: IFNγ inhibition (IC50 range)
Description: as §2, §3

[6] = test system: full length AR (AR-FL) mRNA; assay: Androgen receptor RNA level expression (qRT-PCR) in 22Rv1: AR-FL; conditions: 22Rv1, 1 μM, 48 h; for mrna remaining at 1 µM: Homo sapiens, normalized to untreated control (vehicle/DMSO)
Description: (§4) The prostate cancer cell line 22Rv1 was treated for 48 h with 1 μM Example compound 1, 1/1, 1/2, 2/1, 2/2, 2/3, 2/4, 2/5, 2/6, 2/7, 2/8, 2/9 and 2/10 and the reference compounds SR2211 and XY018 (Nat. Med. 2016; 22:488). RNA was extracted using the RNA isolation kit XS (Macherey-Nagel) and following the manufacture's manual. RNA quantity was measured with the Nanodrop before reverse transcription using Superscript II (Invitrogen #100004925). For the quantitative real-time PCR with SYBR-Green (Qiagen #204074), the following primers were used: AR forward-ACATCAAGGAACTCGATCGTATCATTGC and reverse-TTGGGCACTTGCACAGAGAT, AR-V7: forward-CCATCTTGTCGTCTTCGGAAATGTTATGAAGC and reverse-TTTGAATGAGGCAAGTCAGCCTTTCTT. The qRT-PCR proceeded as follows: denaturation for 5 min 95° C.; 40 cycles of “20 sec at 95° C. and 15 sec at 60° C.” and at the end of the last cycle, the melting temperature of the products was determined by gradually increasing it from 60° C. to 99° C. CT values from all samples were normalized to two different reference (housekeeping) genes using the mean CT value of the GAPDH and YWHAZ (reference genes). Next the values are normalized to the untreated control (vehicle/DMSO).

AR-V7 mRNA = assay: Androgen receptor RNA level expression (qRT-PCR) in 22Rv1: AR-V7; conditions: 22Rv1, 1 μM, 48 h; for mrna remaining at 1 µM: Homo sapiens, normalized to untreated control (vehicle/DMSO)
Description: as §4

KLK2 mRNA = assay: Expression of AR target genes (qRT-PCR) in 22Rv1: KLK2; conditions: 22Rv1, 1 μM; for mrna remaining at 1 µM: Homo sapiens, 48h, relative to vehicle control (DMSO); for KLK2 mRNA level expression: 48 h
Description: (§5) The prostate cancer cell line 22Rv1 was treated for 48h with 1 μM Example compound 1, 1/1, 2/1, 2/2, 2/3, 2/4, 2/5, 2/6, 2/7, 2/8, 2/9 and 2/10 and reference compounds SR2211 and XY018. RNA was extracted using the RNA isolation kit XS (Macherey-Nagel) and following the manufacture's manual. RNA quantity was measured with the Nanodrop before reverse transcription using Superscript II (Invitrogen #100004925). For the quantitative real-time PCR with SYBR-Green (Qiagen #204074), the following primers were used:
(§6) qRT-PCR was performed using SYBR-Green (Qiagen #204074) reagents in a PCR cycler (Gorbett Research) Rotor Gene RG3000 with the following program: denaturation for 5′ at 95° C.; 40 cycles of 20″ at 95° C. and 15″ at 60° C.″ and at the end of the last cycle, the melting temperature of the products was determined by gradually increasing from 60° C. to 99° C. CT values from all samples were normalized to reference (housekeeping) genes using the mean CT value of the GAPDH and YWHAZ (reference genes). Next the values are put relative to the untreated control (vehicle/DMSO).

NKX3.1 mRNA = assay: Expression of AR target genes (qRT-PCR) in 22Rv1: NKX3.1; conditions: Homo sapiens; 22Rv1, 1 μM, 48h; relative to vehicle control (DMSO)
Description: as §5, §6

FKBP5 mRNA = assay: Expression of AR target genes (qRT-PCR) in 22Rv1: FKBP5; conditions: Homo sapiens; 22Rv1, 1 μM, 48h; relative to vehicle control (DMSO)
Description: as §5, §6

## CC(=O)O[C@H]1C(=O)[C@@]2(C)[C@H]([C@H](OC(=O)c3ccccc3)[C@]3(O)C[C@H](OC(=O)[C@H](O)[C@@H](NC(=O)c4ccccc4)c4ccccc4)C(C)=C1C3(C)C)[C@]1(OC(C)=O)CO[C@@H]1C[C@@H]2O [paclitaxel, reference compound]
[1]
  GI50: < 25 nM
[2]
  GI50: < 25 nM
[3]
  GI50: < 25 nM
[4]
  GI50: < 25 nM
[5]
  GI50: < 25 nM

## Fc1cccc(Cl)c1-c1noc(-c2cnn(-c3cccc(Cl)c3)c2C(F)(F)F)c1COC1CC1 [Example 2, 3-(2-Chloro-6-fluorophenyl)-5-(1-(3-chlorophenyl)-5-(trifluoromethyl)-1H-pyrazol-4-yl)-4-(cyclopropoxymethyl)isoxazole]
RORγt
  IC50: < 10 nM

## COc1cccc(-c2noc(-c3cnn([C@H]4C[C@@](C)(O)C4)c3C(F)(F)F)c2COC2CC2)c1Cl [2/9]
IL-17A
  IC50: < 25 nM
IL-17F
  IC50: < 25 nM
IFNγ
  IC50: < 25 nM
[6]
  full length AR (AR-FL) mRNA expression: strong reduction
  mrna remaining at 1 µM: 49.9%
AR-V7 mRNA
  AR-V7 mRNA expression: strong reduction
  mrna remaining at 1 µM: 29.3%
KLK2 mRNA
  mrna remaining at 1 µM: 41.2%
NKX3.1 mRNA
  mrna remaining at 1 µM: 48.2%
FKBP5 mRNA
  mrna remaining at 1 µM: 31.5%

## CC(C)(O)CCn1ncc(-c2onc(-c3c(F)cccc3Cl)c2-c2ncccn2)c1C(F)F [Example 1/2, 4-(4-(3-(2-Chloro-6-fluorophenyl)-4-(pyrimidin-2-yl)isoxazol-5-yl)-5-(difluoromethyl)-1H-pyrazol-1-yl)-2-methylbutan-2-ol]
[6]
  full length AR (AR-FL) mRNA expression: strong reduction
  mrna remaining at 1 µM: 52.4%
AR-V7 mRNA
  AR-V7 mRNA expression: strong reduction
  mrna remaining at 1 µM: 50.9%
RORγt
  IC50: 10 to 100 nM

## C[C@H](O)Cn1ncc(-c2onc(-c3c(F)cccc3Cl)c2-c2nccs2)c1C(F)(F)F [Example 2/1]
IL-17A
  IC50: < 25 nM
IL-17F
  IC50: < 25 nM
IFNγ
  IC50: < 25 nM
[6]
  full length AR (AR-FL) mRNA expression: strong reduction
  mrna remaining at 1 µM: 42.4%
AR-V7 mRNA
  AR-V7 mRNA expression: strong reduction
  mrna remaining at 1 µM: 22.8%
KLK2 mRNA
  mrna remaining at 1 µM: 56.9%
NKX3.1 mRNA
  mrna remaining at 1 µM: 39.9%
FKBP5 mRNA
  mrna remaining at 1 µM: 34.4%

## C[C@H](O)Cn1ncc(-c2onc(-c3cccc(C(=O)N4CCCC4)c3Cl)c2-c2ccncn2)c1C(F)(F)F [2/3]
IL-17A
  IC50: 25 to 100 nM
IL-17F
  IC50: 25 to 100 nM
IFNγ
  IC50: 25 to 100 nM
[6]
  full length AR (AR-FL) mRNA expression: strong reduction
  mrna remaining at 1 µM: 43.4%
AR-V7 mRNA
  AR-V7 mRNA expression: strong reduction
  mrna remaining at 1 µM: 25.5%
KLK2 mRNA
  KLK2 mRNA level expression: strong inhibition
  mrna remaining at 1 µM: 41.1%
NKX3.1 mRNA
  mrna remaining at 1 µM: 35.7%
FKBP5 mRNA
  mrna remaining at 1 µM: 24.5%

## CNC(=O)c1ccc(N2C(=S)N(c3ccc(C#N)c(C(F)(F)F)c3)C(=O)C2(C)C)cc1F [enzalutamide, reference compound]
[1]
  GI50: ≥ 5000 nM
[2]
  GI50: ≥ 5000 nM
[3]
  GI50: ≥ 5000 nM
[4]
  GI50: 100 to 5000 nM
[5]
  GI50: 100 to 5000 nM

## C[C@]1(O)C[C@@H](n2ncc(-c3onc(-c4c(F)cccc4Cl)c3-c3ccncn3)c2C(F)(F)F)C1 [2/4]
IL-17A
  IC50: 25 to 100 nM
IL-17F
  IC50: < 25 nM
IFNγ
  IC50: < 25 nM
[6]
  full length AR (AR-FL) mRNA expression: strong reduction
  mrna remaining at 1 µM: 43.5%
AR-V7 mRNA
  AR-V7 mRNA expression: strong reduction
  mrna remaining at 1 µM: 25.4%
KLK2 mRNA
  KLK2 mRNA level expression: strong inhibition
  mrna remaining at 1 µM: 42.6%
NKX3.1 mRNA
  mrna remaining at 1 µM: 35.9%
FKBP5 mRNA
  mrna remaining at 1 µM: 29.8%

## CCOC(=O)c1c(-c2cccc(OC)c2Cl)noc1-c1cnn(CCC(C)(C)O)c1C(F)(F)F [2/10]
IL-17A
  IC50: < 25 nM
IL-17F
  IC50: < 25 nM
IFNγ
  IC50: < 25 nM
[6]
  full length AR (AR-FL) mRNA expression: strong reduction
  mrna remaining at 1 µM: 53.1%
AR-V7 mRNA
  AR-V7 mRNA expression: strong reduction
  mrna remaining at 1 µM: 22.7%
KLK2 mRNA
  KLK2 mRNA level expression: strong inhibition
  mrna remaining at 1 µM: 37.9%
NKX3.1 mRNA
  mrna remaining at 1 µM: 32.2%
FKBP5 mRNA
  mrna remaining at 1 µM: 27.7%

## CC(C)(O)CCn1ncc(-c2onc(-c3cccc(OCCN4CCOCC4)c3Cl)c2-c2ncccn2)c1C(F)(F)F [2/7]
IL-17A
  IC50: 25 to 100 nM
IL-17F
  IC50: < 25 nM
IFNγ
  IC50: < 25 nM
[6]
  full length AR (AR-FL) mRNA expression: strong reduction
  mrna remaining at 1 µM: 42.5%
AR-V7 mRNA
  AR-V7 mRNA expression: strong reduction
  mrna remaining at 1 µM: 22.8%
KLK2 mRNA
  KLK2 mRNA level expression: strong inhibition
  mrna remaining at 1 µM: 43.6%
NKX3.1 mRNA
  mrna remaining at 1 µM: 30.5%
FKBP5 mRNA
  mrna remaining at 1 µM: 27.5%
RORγt
  IC50: 100 to 1000 nM
